# Earlier results in patent US11317628B2, “Microparticle compositions comprising saflufenacil” (BASF Agro B.V., priority 2015, dated 2022).
# Settings: background statement
smiles,measurement,value
"CC(C)N(C)S(=O)(=O)NC(=O)c1cc(-n2c(=O)cc(C(F)(F)F)n(C)c2=O)c(F)cc1Cl [Saflufenacil, 2-chloro-5-[3,6-dihydro-3-methyl-2,6-dioxo-4-(trifluoromethyl)-1-(2H)pyrimidinyl]-4-fluoro-N-[[methyl(1-methylethyl)amino]sulfonyl]benzamide]",Solubility in water,only sparingly soluble in water
